Measurements as given in patent US4279926A, “Method of relieving pain and treating inflammatory conditions in warm-blooded animals” (priority 1974, dated 1981).
In brackets after ≈: the same amount, converted by molar mass. Several values for one entry are separate records, joined by “and”; a condition that tells them apart may be missing. Identical values can stand only once. Counter-ions that a name gives are not always drawn. Like-named read-outs stand apart in the source and are kept apart here.

How the values were obtained:
[1] = Solubility; assay type: physicochemical
[2] = pH of aqueous solution; assay type: physicochemical
[3] = Stability; settings: salt or its aqueous solution
[4] = tested on: gastro-intestinal mucosa; settings: cited from earlier work
[5] = tested on: carrageenin oedema, inflamed paw; test: Carrageenin oedema of the rat paw (anti-inflammatory action, paw size/volume); assay type: in vivo, male Wistar rats; settings: Table 2, 100 mg/kg p.o. (lysine salt: 60 as active substance)
[6] = tested on: pain threshold in the inflamed paw (carrageenin oedema); test: Pain threshold under pressure of the inflamed (carrageenin) rat paw (analgesic action); settings: Table 3, 100 mg/kg p.o. (lysine salt: 60 as active substance)
Protocol: At intervals after the treatment, the size of the treated paw and its sensitivity to pain under pressure were evaluated.

[7] = total mean values, especially during the first 3 hours
Protocol: The blood levels were then determined after 0.5, 1, 1.5, 2, 3, 4 and 5 hours.

[8] = tested on: occult blood in faeces; test: Occult blood in faeces (benzidine test); assay type: in vivo, human
Protocol: In cases with a history of gastroenteric disorders, even if not drug-dependent, the faeces were tested for the presence of occult blood, using the benzidine test.

[9] = tested on: patients with degenerative osteoarticular affections; test: Clinical trial, i.m. 500 mg/day, efficacy in degenerative osteoarticular diseases; assay type: in vivo, human
Source text: In a subsequent clinical trial, 33 human subjects were used with an average age of 73.8±6.8, the minimum age being 61 and the maximum age 88; 7 of the subjects were males and the remaining 26 were female.
These subjects presented osteoarticular diseases of a chronic or subacute type, in which, during the period of observation, an evolutive flare-up of a pre-existing mono- or polyarticular arthrosic process was verified, as well as the appearance ex novo of an arthralgic picture with functional impotence of the osteoarticular segments which previously appeared to be undamaged.
In these cases, the parenteral route of administration was used so as to obtain, in view of the watersoluble characteristics of the test material, a more rapid symptomatic control. Furthermore, this method of administration permits a ready control of any differences in gastric tolerance as compared with the oral administration route, which is more commonly used.
The test substance was injected in the morning between 8 and 8.30 a.m. Before starting the therapy, midway through it and immediately after it, the following parameters were controlled in order to ascertain how effective the treatment had been: Lansbury's dynamometer (the values of muscular strength were expressed in kg.); the range of articular flexion and extension (the basal finding was expressed conventionally with the notations "+" to "+++," the successive findings being assessed as "unchanged," "increased" or "decreased," compared with the pre-treatment findings; subjective algesic symptomatology, the criteria of evaluation being similar to those adopted for determining the range of articular flexion and extension; finger tip-floor distance test, obtained by measuring the distance between the tips of the fingers and the floor when the subject bends forward; and morning stiffness, this being the time taken for the disappearance of stiffness on awakening.
Thus, for the evaluation of the test substance, it was thus possible to have 3 quantitative parameters (morning stiffness, Lansbury's index and finger tip-floor distance) and 2 semiquantitative parameters (pain symptomatology and flexo-extension strength). This is sufficient to obtain a reliable therapeutic profile in the test subjects, where the subjective element plays a predominant role in determining the clinical picture, as well as the therapeutic response.
The numerical data obtained were analysed statistically by means of the calculation of the Student "t" test on the mean values found before and after treatment.

[10] = end of experiment, of 14 positive before treatment
[11] = of 18 cases with major initial involvement

SMILES: CC(C)Cc1ccc(CC(=O)O)cc1 [Example 14, D,L-arginine salt of 2-(4-isobutyl-phenyl)-acetic acid]
- Solubility in water [1]: moderately soluble in water
- pH of aqueous solution [2]: pH close to neutrality
- Stability [3]: stable solution

SMILES: CC(=O)Oc1ccccc1C(=O)O [aspirin]
- Undesired side-effects (gastro-intestinal intolerance, ulceration) compared with phenyl-alkanoic acids ([4]; in vivo): also show these undesired side-effects in an even more pronounced form

SMILES: CCCCC1C(=O)N(c2ccccc2)N(c2ccccc2)C1=O [Phenyl-butazone, phenylbutazone]
- Paw volume - carrageenin oedema ([5]; 0 hrs, control 1.16 ± 0.02): 1.18 ± 0.02 mL
- Paw volume, % variation referred to control ([5]; 3 hrs): -25.4%
- Paw volume, % variation referred to control ([5]; 4 hrs): -23.6%
- Paw volume - carrageenin oedema ([5]; 4 hrs, control 2.29 ± 0.05, **p = 0.01): 1.75 ± 0.05 mL
- Paw volume, % variation referred to control ([5]; 5 hrs): -22.0%
- Paw volume - carrageenin oedema ([5]; 5 hrs, control 2.36 ± 0.06, **p = 0.01): 1.84 ± 0.05 mL
- Undesired side-effects (gastro-intestinal intolerance, ulceration) compared with phenyl-alkanoic acids ([4]; known from the art): also show these undesired side-effects in an even more pronounced form
- Pain threshold - carrageenin oedema ([6]; 0 hrs, control 101.7 ± 3.19): 105.3 ± 3.03 g
- Pain threshold - carrageenin oedema ([6]; 3 hrs, control 52.7 ± 2.00, **p = 0.01): 122.7 ± 2.92 g
- Pain threshold - carrageenin oedema ([6]; 5 hrs, control 51.3 ± 2.15, **p = 0.01): 83.7 ± 4.04 g

SMILES: CC(C)Cc1ccc(C(C)C(=O)O)cc1 (racemic) [Example 1]
- solubility ([1]; in water): ~400 mg/mL (≈ 1940 mM)
- Blood levels compared with oral sodium salt [7]: higher blood levels are always obtained, especially during the first 3 hours, than after the oral administration of the sodium salt
- Anaemia in blood counts ([8]; end of experiment): did not reveal any cases of anaemia which could be considered pathological or at the most suspect
- Faecal occult blood: haematic loss disappeared [8, 10]: 1 case
- Faecal occult blood: haematic loss reduced [8, 10]: 6 cases
- Faecal occult blood: haematic loss slightly increased [8, 10]: 2 cases
- Faecal occult blood: haematic loss unchanged [8, 10]: 5 cases
- Faecal occult blood positive in pretreatment phase ([8]; pretreatment (baseline)): 14 subjects
- Cases with increase of flexo-extension strength ([9]; 33 patients, i.m. 500 mg/day): 36.3%
- Cases with spontaneous pain reduced following treatment ([9]; 33 patients, i.m. 500 mg/day): 27 cases
- Cases with spontaneous pain reduced following treatment (%) ([9]; 33 patients, i.m. 500 mg/day): 81.8%
- Morning stiffness, mean after treatment ([9]; Table 7, after i.m. 500 mg/day, s.d. ± 8.2): 18.93 min
- Morning stiffness, mean before treatment ([9]; Table 7, before treatment (baseline), s.d. ± 6.62): 20.17 min
- Lansbury test, mean before treatment ([9]; Table 7, before treatment (baseline), s.d. ± 9.19): 30.96 kg
- Fingertip-floor distance, mean before treatment ([9]; Table 7, before treatment (baseline), s.d. ± 12.4): 33.17 cm
- Fingertip-floor distance, after treatment ([9]; Table 7, i.m. 500 mg/day, individual patients in order of case no. (cases 7, 8, 9, 14, 27-31, 33 not given), listed as lysine isobutylphenyl propionate): 45 cm and 40 cm and 30 cm and 28 cm and 15 cm and 11 cm and 6 cm and 20 cm and 24 cm and 48 cm and 38 cm and 18 cm and 46 cm and 35 cm
- Morning stiffness, after treatment ([9]; Table 7, i.m. 500 mg/day, individual patients in order of case no. (cases 8, 9, 14, 26 not given), listed as lysine isobutylphenyl propionate): 30 min and 10 min and 0 min and 8 min and 2 min and 12 min and 25 min and 15 min and 11 min and 5 min and 9 min and 23 min and 18 min and 22 min and 20 min
- Radiologic changes ([9]; after treatment vs before): no radiologic changes
- Lansbury test, pre- vs post-treatment mean values ([9]; i.m. 500 mg/day): similar
- Overall safety and clinical efficacy ([9]; i.m. 500 mg/day): safe and clinically effective
- P, difference between pre- and post-treatment duration of morning stiffness ([9]; i.m. 500 mg/day, Student t test): < 0.01
- Patients with "excellent" effect ([9]; i.m. 500 mg/day, of 33): 25 patients
- Patients with "fair" result ([9]; i.m. 500 mg/day, of 33): 4 patients
- Patients with "poor" or "nil" effect ([9]; i.m. 500 mg/day, of 33): 4 patients
- Patients with marked improvement of flexo-extension strength [9, 11]: 10 patients
- Patients with marked improvement of flexo-extension strength (%) [9, 11]: 55.5%
- pH of aqueous solution [2]: substantially neutral pH
